According to patent US11834440B2, “Beta-lactam derivatives for the treatment of diseases” (Insilico Medicine IP Limited, priority 2021, dated 2023):

molecular target: QPCTL (Homo sapiens (Human), UniProt Q9NXS2); assay: QPCTL inhibition, SensoLyte Green Glutaminyl Cyclase Activity Assay; assay type: biochemical; details: 0.8 nM 2x enzyme solution, 45 min at 37° C., 50 mM Tris pH 8.0, 1% DMSO
Protocol: Preparation of working solution: 2×Glutaminyl Cyclase substrate was diluted in assay buffer to […]. 2×enzyme solution and QPCTL was diluted in assay buffer to 0.8 nM. Glutaminyl Cyclase Developer was diluted in assay buffer to 1×(containing 10 mM 1-Benzyl-Imidazole). Serial dilution of test compounds was performed in DMSO. The final DMSO concentration in 100 μl reaction was 1%. The assay buffer was 50 mM Tris, pH 8.0, 0.01% BSA.
Procedure: 50 μL of 2×Glutaminyl Cyclase substrate solution was added into the assay plate followed by 50 μL of 2×enzyme solution. The plate was centrifuged for 1 min at 1000 rmp. Next the plate was incubated for 45 minutes at 37° C. This was followed by the additional of 50 μL of the prepared Glutaminyl Cyclase developer and incubated for additional 30 min at 37° C. Results were read on SpectraMax Paradigm detecting with emission at Ex/Em=490 nm/520 nm.
A Z′ value was calculated for each assay plate. The Z′ value must be >0.5 or the plate was disqualified. […] Results were calculated using GraphPad Prism 7 software is used for IC50 determination.

Chain of QPCTL (Q9NXS2 whole entry, species assumed): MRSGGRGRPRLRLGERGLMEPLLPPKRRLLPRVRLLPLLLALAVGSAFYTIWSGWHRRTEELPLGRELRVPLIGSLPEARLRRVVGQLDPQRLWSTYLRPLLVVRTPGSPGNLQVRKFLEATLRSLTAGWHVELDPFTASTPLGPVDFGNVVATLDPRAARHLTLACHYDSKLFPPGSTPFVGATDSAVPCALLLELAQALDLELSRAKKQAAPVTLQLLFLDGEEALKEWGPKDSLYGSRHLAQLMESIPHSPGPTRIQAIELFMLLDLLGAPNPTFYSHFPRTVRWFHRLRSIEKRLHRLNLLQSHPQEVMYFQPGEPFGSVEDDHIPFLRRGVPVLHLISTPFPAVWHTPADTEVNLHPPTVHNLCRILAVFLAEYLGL

IC50, > 1000 nM:
CC1(C)C(=O)N(c2ccc3[nH]cnc3c2)C1c1c(F)cc(OCCC(F)F)cc1F (racemic) [Compound 2, 1-(1H-benzo[d]imidazol-5-yl)-4-(4-(3,3-difluoropropoxy)-2,6-difluorophenyl)-3,3-dimethylazetidin-2-one]
O=C1[C@@H](O)[C@@H](c2c(F)cc(OCCC(F)F)cc2F)N1c1ccc2[nH]cnc2c1 (single isomer, unassigned) [Compound 8A]

IC50, 2 to 25 nM:
CC1C(=O)N(c2ccc3[nH]cnc3c2)C1c1c(F)cc(OCCC(F)F)cc1F (racemic) [Compound 7, 1-(1H-benzo[d]imidazol-5-yl)-4-(4-(3,3-difluoropropoxy)-2,6-difluorophenyl)-3-methylazetidin-2-one]
C[C@H]1C(=O)N(c2ccc3[nH]cnc3c2)[C@H]1c1c(F)cc(N2CCC(F)(F)C2)cc1F (racemic) [Compound 12CR, (cis and racemic)-1-(1H-benzo[d]imidazol-5-yl)-4-(4-(3,3-difluoropyrrolidin-1-yl)-2,6-difluorophenyl)-3-methylazetidin-2-one]
CC1C(=O)N(c2ccc3[nH]cnc3c2)C1c1c(F)cc(-c2cnn(C(F)(F)F)c2)cc1F (racemic) [Compound 14, (cis and racemic)-1-(1H-benzo[d]imidazol-5-yl)-4-(2,6-difluoro-4-(1-(trifluoromethyl)-1H-pyrazol-4-yl)phenyl)-3-methyl azetidin-2-one]
C[C@H]1C(=O)N(c2ccc3[nH]cnc3c2)[C@H]1c1c(F)cc(N2CCC(F)(F)CC2)cc1F (single isomer, unassigned) [Compound 30B]
O=C1[C@@H](O)[C@H](c2c(F)cc(-c3cnn(C(F)F)c3)cc2F)N1c1ccc2[nH]cnc2c1 (racemic) [Compound 25TR]
Cc1ncc(-c2cc(F)c([C@H]3[C@@H](C)C(=O)N3c3ccc4[nH]cnc4c3)c(F)c2)s1 (racemic) [Compound 11CR, (cis and racemic)-1-(1H-benzo[d]imidazol-5-yl)-4-(2,6-difluoro-4-(2-methylthiazol-5-yl)phenyl)-3-methylazetidin-2-one]
C[C@H]1C(=O)N(c2ccc3[nH]cnc3c2)[C@H]1c1c(F)cc(-c2cnn(C)c2)cc1F (single isomer, unassigned) [Compound 13B]
CN1CCN(c2cc(F)c(C3CC(=O)N3c3ccc4[nH]cnc4c3)c(F)c2)CC1 (racemic) [Compound 4, 1-(1H-benzo[d]imidazol-5-yl)-4-(2,6-difluoro-4-(4-methylpiperazin-1-yl)phenyl)azetidin-2-one]

IC50, 25 to 1000 nM:
Cc1cc(-n2cnc(C(F)(F)F)c2)ccc1[C@@H]1[C@H](C2CC2)C(=O)N1c1ccc2[nH]cnc2c1 (single isomer, unassigned) [Compound 74A]
CC[C@@H]1C(=O)N(c2ccc3[nH]cnc3c2)[C@@H]1c1c(F)cc(-c2cnn(C(F)(F)F)c2)cc1F (single isomer, unassigned) [Compound 51A]
C[C@@H]1C(=O)N(c2ccc3[nH]cnc3c2)[C@@H]1c1c(F)cc(OCC(C)(C)O)cc1F (single isomer, unassigned) [Compound 32A]
C=C1C(=O)N(c2ccc3[nH]cnc3c2)[C@@H]1c1c(F)cc(OCCC(F)F)cc1F (single isomer, unassigned) [Compound 22A]
O=C1[C@@H](C2CC2)[C@@H](c2ccc(-c3cnn(C(F)(F)F)c3)cc2Cl)N1c1ccc2[nH]cnc2c1 (single isomer, unassigned) [Compound 75A]
O=C1[C@@H](C2COC2)[C@@H](c2c(F)cc(-c3cnn(C(F)(F)F)c3)cc2F)N1c1ccc2[nH]cnc2c1 (single isomer, unassigned) [Compound 42A]
C[C@@H]1C(=O)N(c2ccc3[nH]cnc3c2)[C@@H]1c1c(F)cc(-c2cnn(C(F)(F)F)c2)cc1F (single isomer, unassigned) [Compound 14A]
O=C1[C@@H](C2CC2)[C@@H](c2ccc(-c3cnn(C(F)(F)F)c3)cc2)N1c1ccc2[nH]cnc2c1 (single isomer, unassigned) [Compound 55A]
O=C1[C@@H](C2CC2)[C@@H](c2c(F)cc(C3CC3)cc2F)N1c1ccc2[nH]cnc2c1 (single isomer, unassigned) [Compound 69A]
C[C@@H]1C(=O)N(c2ccc3[nH]cnc3c2)[C@H]1c1c(F)cc(OCCC2CC2)cc1F (racemic) [Compound 34TR, (Trans and racemic)-1-(1H-benzo[d]imidazol-5-yl)-4-(4-(2-cyclopropylethoxy)-2,6-difluorophenyl)-3-methylazetidin-2-one]
Cc1cc(-c2ccc(C(F)(F)F)nn2)ccc1[C@@H]1[C@H](C2CC2)C(=O)N1c1ccc2[nH]cnc2c1 (single isomer, unassigned) [Compound 67A]

IC50, < 2 nM:
O=C1[C@H](C2CC2)[C@H](c2c(F)cc(-n3cc(C(F)(F)F)nn3)cc2F)N1c1ccc2[nH]cnc2c1 (single isomer, unassigned) [Compound 59B]
C[C@H]1C(=O)N(c2ccc3[nH]cnc3c2)[C@H]1c1c(F)cc(OCC(C)(C)O)cc1F (single isomer, unassigned) [Compound 32B]
C[C@H]1C(=O)N(c2ccc3[nH]cnc3c2)[C@H]1c1c(F)cc(-c2cnn(C(F)(F)F)c2)cc1F (single isomer, unassigned) [Compound 14B]
O=C1[C@H](C2CC2)[C@H](c2ccc(-c3cnn(C(F)(F)F)c3)cn2)N1c1ccc2[nH]cnc2c1 (single isomer, unassigned) [Compound 46B]
O=C1[C@H](O)[C@H](c2c(F)cc(-c3cnn(C(F)F)c3)cc2F)N1c1ccc2[nH]cnc2c1 (racemic) [Compound 25CR]
Cc1cc(-c2cnn(C(F)(F)F)c2)ccc1[C@H]1[C@@H](C2CC2)C(=O)N1c1ccc2[nH]cnc2c1 (single isomer, unassigned) [Compound 56B]
O=C1[C@H](C2CC2)[C@H](c2c(F)cc(-n3cc(C(F)(F)F)cn3)cc2F)N1c1ccc2[nH]cnc2c1 (single isomer, unassigned) [Compound 58B]
O=C1[C@H](C2CC2)[C@H](c2c(F)cc(-n3cnc(C(F)(F)F)c3)cc2F)N1c1ccc2[nH]cnc2c1 (single isomer, unassigned) [Compound 61B]
Cc1cc(-n2cnc(C(F)(F)F)c2)ccc1[C@H]1[C@@H](C2CC2)C(=O)N1c1ccc2[nH]cnc2c1 (single isomer, unassigned) [Compound 74B]
C=C1C(=O)N(c2ccc3[nH]cnc3c2)[C@H]1c1c(F)cc(OCCC(F)F)cc1F (single isomer, unassigned) [Compound 22B]
Cc1ccc(-c2ccc([C@H]3[C@@H](C4CC4)C(=O)N3c3ccc4[nH]cnc4c3)c(C)n2)nn1 (single isomer, unassigned) [Compound 71B]
O=C1[C@H](CC(F)(F)F)[C@H](c2c(F)cc(-c3cnn(C(F)(F)F)c3)cc2F)N1c1ccc2[nH]cnc2c1 (single isomer, unassigned) [Compound 54B]
Cc1nc(-n2cnc(C(F)(F)F)c2)ccc1[C@H]1[C@@H](C2CC2)C(=O)N1c1ccc2[nH]cnc2c1 (single isomer, unassigned) [Compound 72B]
O=C1[C@H](O)[C@H](c2c(F)cc(-c3cnn(C(F)(F)F)c3)cc2F)N1c1ccc2[nH]cnc2c1 (racemic) [Compound 16CR]
C=C1C(=O)N(c2ccc3[nH]cnc3c2)C1c1c(F)cc(OCCC(F)F)cc1F (racemic) [Compound 22, (racemic)-1-(1H-benzo[d]imidazol-5-yl)-4-(4-(3,3-difluoropropoxy)-2,6-difluorophenyl)-3-methyleneazetidin-2-one]
Cc1nc(-c2ccc(C(F)(F)F)nn2)ccc1[C@H]1[C@@H](C2CC2)C(=O)N1c1ccc2[nH]cnc2c1 (single isomer, unassigned) [Compound 70B]
Cc1cc(-n2cnc(C(F)(F)F)c2)ncc1[C@H]1[C@@H](C2CC2)C(=O)N1c1ccc2[nH]cnc2c1 (single isomer, unassigned) [Compound 73B]
O=C1[C@H](C2CC2)[C@H](c2ccc(-c3cnn(C(F)(F)F)c3)nc2)N1c1ccc2[nH]cnc2c1 (single isomer, unassigned) [Compound 43B]
O=C1[C@H](C2CC2)[C@H](c2c(F)cc(-c3ccn(C(F)(F)F)n3)cc2F)N1c1ccc2[nH]cnc2c1 (single isomer, unassigned) [Compound 47B]
O=C1[C@H](C2COC2)[C@H](c2c(F)cc(-c3cnn(C(F)(F)F)c3)cc2F)N1c1ccc2[nH]cnc2c1 (single isomer, unassigned) [Compound 42B]
O=C1[C@H](C2CC2)[C@H](c2c(F)cc(OCCC(F)F)cc2F)N1c1ccc2[nH]cnc2c1 (single isomer, unassigned) [Compound 18B]
C[C@H]1C(=O)N(c2ccc3[nH]cnc3c2)[C@H]1c1c(F)cc(OCCC(F)F)cc1F (single isomer, unassigned) [Compound 7B]
Cc1cc([C@H]2[C@@H](C3CC3)C(=O)N2c2ccc3[nH]cnc3c2)ccc1-c1cnn(C(F)(F)F)c1 (single isomer, unassigned) [Compound 57B]
